Experiments:
S. aureus ATCC 29213 [1] = assay: MIC, microdilution in CAMHB 24 h, with or without tomatidine/compound; format: cell-based, Staphylococcus aureus; conditions: for MIC −TO: absence of tomatidine
S. aureus ATCC 29213 [2] = assay: Checkerboard assay, aminoglycoside and tomatidine; format: cell-based, Staphylococcus aureus; conditions: for Aminoglycoside MIC: checkerboard
Method: This checkerboard protocol (Eliopoulos and Moellering, 1996) was conducted by a microdilution method similar to that use for standard MICs determination. In 96 wells plates, antibiotics were loaded at a 4× concentration (where X is the maximal tested concentration) in well A1 and at a 2× concentration in the others wells of the column 1. Antibiotics were serially diluted 1:1 from the column 2 to column 10. […] Wells A12, B12, […] are positive untreated controls whereas wells […] are negative non-inoculated controls. […] The FIC index was calculated as follow (Eliopoulos and Moellering, 1996): FIC […]/MICB, where A and B are MICs of compounds A and B in combination and where MICA and MICB are the MICs of compound A alone and of compound B alone, respectively, and FICA and FICB are the FICs of compound A and of compound B, respectively.

S. aureus 8325-4 = assay: MIC, microdilution in CAMHB 24 h; format: cell-based, Staphylococcus aureus; conditions: 8325-4
S. aureus Newbould = assay: MIC, microdilution in CAMHB 24 h; format: cell-based, Staphylococcus aureus; conditions: Newbould
S. aureus SHY97-3906 = assay: MIC, microdilution in CAMHB 24 h; format: cell-based, Staphylococcus aureus
S. aureus ATCC 43300 = assay: MIC, microdilution in CAMHB 24 h; format: cell-based, Staphylococcus aureus; conditions: ATCC 43300
S. aureus ATCC BAA-41 = assay: MIC, microdilution in CAMHB 24 h; format: cell-based, Staphylococcus aureus
S. aureus MA078038 = assay: MIC, microdilution in CAMHB 24 h; format: cell-based, Staphylococcus aureus
S. aureus Newman = assay: MIC, microdilution in CAMHB 24 h; format: cell-based, Staphylococcus aureus; conditions: Newman
S. aureus Mu50 = assay: MIC, microdilution in CAMHB 24 h; format: cell-based, Staphylococcus aureus
S. aureus Sa228c = assay: MIC, microdilution in CAMHB 24 h; format: cell-based, Staphylococcus aureus; conditions: Sa228c, 8 μg/ml of tomatidine
S. aureus CF2A-L = assay: MIC, microdilution in CAMHB 24 h; format: cell-based; conditions: CF2A-L
S. aureus CF4B-L = assay: MIC, microdilution in CAMHB 24 h; format: cell-based, Staphylococcus aureus; conditions: CF4B-L
S. aureus CF6B-L = assay: MIC, microdilution in CAMHB 24 h; format: cell-based, Staphylococcus aureus; conditions: CF6B-L
S. aureus CF7A-L = assay: MIC, microdilution in CAMHB 24 h; format: cell-based, Staphylococcus aureus; conditions: CF7A-L
S. aureus CF8E-L = assay: MIC, microdilution in CAMHB 24 h; format: cell-based, Staphylococcus aureus; conditions: CF8E-L
S. aureus CF35A-L = assay: MIC, microdilution in CAMHB 24 h; format: cell-based, Staphylococcus aureus; conditions: CF35A-L
S. aureus CF07-L = assay: MIC, microdilution in CAMHB 24 h; format: cell-based, Staphylococcus aureus; conditions: CF07-L
S. aureus ATCC 29213 [3] = assay: Time-kill experiments, aminoglycoside alone or with tomatidine (FIGS. 8-10)
[4] = ATCC 29123, 8 μg/ml of tomatidine
[5] = SHY-3906, 8 μg/ml of tomatidine

## gentamicin
S. aureus ATCC 29213 [1]; [4]
  Fold (−TO/+TO): 8-32 fold
  MIC +TO: 0.03 to 0.06 µg/mL
S. aureus ATCC 29213 [1]; ATCC 29123
  MIC −TO: 0.5 to 1 µg/mL
S. aureus ATCC 29213 [1]; ATCC 29213, Human (SSTI)
  MIC: 0.5 to 1 µg/mL
S. aureus ATCC 29213 [1]; ATCC 29213
  MIC −TO: 0.5-1^ μg/ml
S. aureus ATCC 29213 [1]; ATCC 29213, presence of tomatidine at 8 μg/ml
  MIC +TO: 0.03 to 0.06 µg/mL
S. aureus ATCC 29213 [1]; ATCC 29213, tomatidine at 8 μg/ml
  Fold (−TO/+TO): 8-32 fold
S. aureus ATCC 29213 [2]; aminoglycoside with tomatidine, tomatidine MIC considered 32 μg/ml, values overestimated
  FIC index: ≦0.116
S. aureus ATCC 29213 [2]; tomatidine 0 μg/ml
  Aminoglycoside MIC: 0.5 to 1 µg/mL
S. aureus ATCC 29213 [2]; tomatidine 0.06 μg/ml
  Aminoglycoside MIC: 0.25 µg/mL
S. aureus ATCC 29213 [2]; tomatidine 0.12 μg/ml
  Aminoglycoside MIC: 0.06 to 0.25 µg/mL
S. aureus ATCC 29213 [2]; tomatidine 0.25 μg/ml
  Aminoglycoside MIC: 0.06 µg/mL
S. aureus ATCC 29213 [2]; tomatidine 0.5 μg/ml
  Aminoglycoside MIC: 0.06 µg/mL
S. aureus ATCC 29213 [2]; tomatidine 1 μg/ml
  Aminoglycoside MIC: 0.03 to 0.06 µg/mL
S. aureus ATCC 29213 [2]; tomatidine 2 μg/ml
  Aminoglycoside MIC: 0.06 to 0.12 µg/mL
S. aureus ATCC 29213 [2]; tomatidine 4 μg/ml
  Aminoglycoside MIC: 0.03 to 0.12 µg/mL
S. aureus ATCC 29213 [2]; tomatidine 8 μg/ml
  Aminoglycoside MIC: 0.03 to 0.06 µg/mL
S. aureus 8325-4; 8 μg/ml of tomatidine
  Fold (−TO/+TO): 4 fold
  MIC +TO: 0.03 to 0.06 µg/mL
S. aureus 8325-4; Laboratory strain
  MIC: 0.12 to 0.25 µg/mL
S. aureus 8325-4; absence of tomatidine
  MIC −TO: 0.12 to 0.25 µg/mL
S. aureus Newbould; 8 μg/ml of tomatidine
  MIC +TO: 0.06 µg/mL
S. aureus Newbould; Cow (mastitis)
  MIC: 0.5 to 1 µg/mL
S. aureus Newbould; absence of tomatidine
  MIC −TO: 0.5 to 1 µg/mL
S. aureus SHY97-3906; SHY97-3906, Cow (mastitis)
  MIC: 0.25 µg/mL
S. aureus SHY97-3906; [5]
  Fold (−TO/+TO): 4-8 fold
  MIC +TO: 0.03 to 0.06 µg/mL
S. aureus SHY97-3906; SHY-3906, absence of tomatidine
  MIC −TO: 0.25 µg/mL
S. aureus ATCC 43300; 8 μg/ml of tomatidine
  Fold (−TO/+TO): 4 fold
  MIC +TO: 16 to 32 µg/mL
S. aureus ATCC 43300; Human (HA), MRSA
  MIC: 64-128 (R) μg/ml
S. aureus ATCC 43300; absence of tomatidine
  MIC −TO: 64 to 128 µg/mL
S. aureus ATCC BAA-41; ATCC BAA-41, ant(4′)-Ia, 8 μg/ml of tomatidine
  MIC +TO: 0.12 to 0.25 µg/mL
S. aureus ATCC BAA-41; ATCC BAA-41, ant(4′)-Ia, absence of tomatidine
  MIC −TO: 0.5 µg/mL
S. aureus ATCC BAA-41; ATCC BAA-41, 8 μg/ml of tomatidine
  Fold (−TO/+TO): 2-4 fold
S. aureus ATCC BAA-41; ATCC BAA-41, Human (HA), MRSA
  MIC: 0.5 µg/mL
S. aureus MA078038; MA078038, aph(3′)-IIIa, 8 μg/ml of tomatidine
  MIC +TO: 0.06 µg/mL
S. aureus MA078038; MA078038, aph(3′)-IIIa, absence of tomatidine
  MIC −TO: 0.25 to 0.5 µg/mL
S. aureus MA078038; MA078038, 8 μg/ml of tomatidine
  Fold (−TO/+TO): 4-8 fold
S. aureus MA078038; MA078038, Human (CA), MRSA
  MIC: 0.25 to 0.5 µg/mL
S. aureus Newman; 8 μg/ml of tomatidine
  Fold (−TO/+TO): 8-16 fold
  MIC +TO: 0.06 µg/mL
S. aureus Newman; Human (Osteo)
  MIC: 0.5 to 1 µg/mL
S. aureus Newman; absence of tomatidine
  MIC −TO: 0.5 to 1 µg/mL
S. aureus Mu50; Mu50, aac(6′)-aph(2″), ant(4′)-Ia, 8 μg/ml of tomatidine
  MIC +TO: 16 µg/mL
S. aureus Mu50; Mu50, aac(6′)-aph(2″), ant(4′)-Ia, absence of tomatidine
  MIC −TO: 128 µg/mL
S. aureus Mu50; Mu50, 8 μg/ml of tomatidine
  Fold (−TO/+TO): 8 fold
S. aureus Mu50; Mu50, Human (SSTI), MRSA, VISA
  MIC: 128 (R) μg/ml
S. aureus Sa228c; aac(6′)-aph(2″), ant(4′)-Ia
  MIC +TO: 8 to 16 µg/mL
S. aureus Sa228c
  Fold (−TO/+TO): 8 fold
S. aureus CF2A-L; 8 μg/ml of tomatidine
  Fold (−TO/+TO): 4-8 fold
  MIC +TO: 0.12 to 0.25 µg/mL
S. aureus CF2A-L; Human (CF lungs)
  MIC: 1 µg/mL
S. aureus CF2A-L; absence of tomatidine
  MIC −TO: 1 µg/mL
S. aureus CF4B-L; 8 μg/ml of tomatidine
  Fold (−TO/+TO): 4-8 fold
  MIC +TO: 0.06 to 0.12 µg/mL
S. aureus CF4B-L; Human (CF lungs)
  MIC: 0.5 µg/mL
S. aureus CF4B-L; absence of tomatidine
  MIC −TO: 0.5 µg/mL
S. aureus CF6B-L; aac(6′)-aph(2″), 8 μg/ml of tomatidine
  MIC +TO: 16 to 32 µg/mL
S. aureus CF6B-L; aac(6′)-aph(2″), absence of tomatidine
  MIC −TO: 128 to 256 µg/mL
S. aureus CF6B-L; 8 μg/ml of tomatidine
  Fold (−TO/+TO): 4-8 fold
S. aureus CF6B-L; Human (CF lungs)
  MIC: 128-256 (R) μg/ml
S. aureus CF7A-L; ant(4′)-Ia, 8 μg/ml of tomatidine
  MIC +TO: 0.12 to 0.25 µg/mL
S. aureus CF7A-L; ant(4′)-Ia, absence of tomatidine
  MIC −TO: 0.5 to 1 µg/mL
S. aureus CF7A-L; 8 μg/ml of tomatidine
  Fold (−TO/+TO): 2-8 fold
S. aureus CF7A-L; Human (CF lungs), MRSA
  MIC: 0.5 to 1 µg/mL
S. aureus CF8E-L; 8 μg/ml of tomatidine
  Fold (−TO/+TO): 2-4 fold
  MIC +TO: 0.25 to 0.5 µg/mL
S. aureus CF8E-L; Human (CF lungs)
  MIC: 1 µg/mL
S. aureus CF8E-L; absence of tomatidine
  MIC −TO: 1 µg/mL
S. aureus CF35A-L; 8 μg/ml of tomatidine
  Fold (−TO/+TO): 8 fold
  MIC +TO: 0.06 to 0.12 µg/mL
S. aureus CF35A-L; Human (CF lungs), MRSA
  MIC: 0.5 to 1 µg/mL
S. aureus CF35A-L; absence of tomatidine
  MIC −TO: 0.5 to 1 µg/mL
S. aureus CF07-L; 8 μg/ml of tomatidine
  Fold (−TO/+TO): 4-8 fold
  MIC +TO: 0.06 to 0.25 µg/mL
S. aureus CF07-L; Human (CF lungs)
  MIC: 0.5 to 1 µg/mL
S. aureus CF07-L; absence of tomatidine
  MIC −TO: 0.5 to 1 µg/mL
S. aureus ATCC 29213 [3]; alone at ≧1×MIC (1 μg/ml), regrowth observed within 24 h, FIG. 9
  time-kill activity alone: bactericidal
S. aureus ATCC 29213 [3]; gentamicin 0.06 μg/ml combined with tomatidine 8, FIG. 8
  time-kill activity of combination: strong bactericidal activity

## C[C@H]1CC[C@]2(NC1)O[C@H]1C[C@H]3[C@@H]4CC[C@H]5C[C@@H](O)CC[C@]5(C)[C@H]4CC[C@]3(C)[C@H]1[C@@H]2C [Tomatidine, tomatidine]
S. aureus ATCC 29213 [3]; combination of tomatidine (8 μg/ml) and gentamicin, FIG. 10
  emergence of resistant CFU: significantly reduced the emergence
S. aureus ATCC 29213 [3]; cultures exposed to gentamicin 0.5 to 4 μg/ml for 24 h, with 8 μg/ml tomatidine, FIG. 10
  number of CFU recovered: significantly decrease
S. aureus ATCC 29213 [3]; tomatidine at 8 μg/ml with aminoglycoside 1 μg/ml, 24 h, FIG. 9
  regrowth of bacteria exposed to gentamicin or tobramycin: markedly reduced the regrowth

From patent US9457033B2, “Steroid alkaloids and uses thereof as antimicrobial agents against electron transport-deficient microbes and as potentiators for antimicrobial agents against pathogenic bacteria” (priority 2011, dated 2016)
